The supplement of paper PMC10307832

Assays:
Test in all cases: relative viability (nuclei count vs DMSO), 5 days (fraction); higher = more cells survive
SGI-1776 + Linsitinib = compound: CN1CCC(CNc2ccc3ncc(-c4cccc(OC(F)(F)F)c4)n3n2)CC1 [SGI-1776] + C[C@]1(O)C[C@@H](c2nc(-c3ccc4ccc(-c5ccccc5)nc4c3)c3c(N)nccn32)C1 [Linsitinib] (partner 1 µM)
Method in brief: (§1)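 Relative viability divides the nuclei count in treated wells by that in vehicle wells. Lung cancer cell lines were seeded in 1536-well plates, dosed by pin tool the next day, and fixed and stained after 5 days in one step with final 0.05% Triton X-100, 1% formaldehyde and 1 ug/ml Hoechst. Dosing was a single drug or a fixed anchor-drug dose plus five library-drug doses (not always all listed) in √10 steps, and values are medians of duplicate plates imaged at 4×.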

[1] = compound: C1COCCN1C2=NC(=NC3=C2OC4=C3C=CC=N4)C5=CC(=CC=C5)NC(=O)C6=CN=C(C=C6)N + COc1cccc2cc(-c3nc([C@H]4CC[C@H](C(=O)O)CC4)n4ncnc(N)c34)[nH]c12 [OSI-027] (partner 0.5 µM)
Method in brief: as §1

[2] = compound: C1COCCN1C2=NC(=NC3=C2OC4=C3C=CC=N4)C5=CC(=CC=C5)NC(=O)C6=CN=C(C=C6)N + Cc1nc(Nc2ncc(C(=O)Nc3c(C)cccc3Cl)s2)cc(N2CCN(CCO)CC2)n1 [Dasatinib] (partner 0.075 µM)
Method in brief: as §1

[3] = compound: C1COCCN1C2=NC(=NC3=C2OC4=C3C=CC=N4)C5=CC(=CC=C5)NC(=O)C6=CN=C(C=C6)N + CC(=O)Nc1cccc(-n2c(=O)n(C3CC3)c(=O)c3c(Nc4ccc(I)cc4F)n(C)c(=O)c(C)c32)c1 [Trametinib] (partner 0.02 µM)
Method in brief: as §1

## UMC-11
SGI-1776 + Linsitinib; first compound 0.08 µM
  relative viability: 1.06
SGI-1776 + Linsitinib; first compound 0.8 µM
  relative viability: 0.987
SGI-1776 + Linsitinib; first compound 2.53 µM
  relative viability: 0.971
SGI-1776 + Linsitinib; first compound 8 µM
  relative viability: 0.836
[1]; first compound 0.02 µM
  relative viability: 0.443
[1]; first compound 0.06325 µM
  relative viability: 0.511
[1]; first compound 0.2 µM
  relative viability: 0.46
[1]; first compound 0.6325 µM
  relative viability: 0.406
[1]; first compound 2 µM
  relative viability: 0.375
[2]; first compound 0.02 µM
  relative viability: 0.454
[2]; first compound 0.06325 µM
  relative viability: 0.519
[2]; first compound 0.2 µM
  relative viability: 0.514
[2]; first compound 0.6325 µM
  relative viability: 0.527
[2]; first compound 2 µM
  relative viability: 0.266
[3]; first compound 0.02 µM
  relative viability: 0.733
[3]; first compound 0.06325 µM
  relative viability: 0.809
[3]; first compound 0.2 µM
  relative viability: 0.572
[3]; first compound 0.6325 µM
  relative viability: 0.706
[3]; first compound 2 µM
  relative viability: 0.614
